Laboratory results taken from patent US9505783B2, “Method of producing pyrone and pyridone derivatives” (priority 2009, dated 2016).

Key:
[1] = molecular target: cap-dependent endonuclease (RNP fraction containing PB1•PB2•PA complex) (Influenza A virus, UniProt P15659); assay: Measurement of cap-dependent endonuclease (CEN) inhibitory activity; type: biochemical; details: RNP enzyme from A/WSN/33 virus, capped Cy3/BHQ2-labelled 30mer RNA substrate, room temperature 60 minutes
influenza virus = assay: CPE inhibitory effect confirming assay; type: cell-based; details: unidentified influenza virus, 72 h, read-out: CPE IC50

SMILES: O=C(O)c1cn2c(c(O)c1=O)C(=O)N1CCCO[C@H]1[C@@H]2C(c1ccccc1)c1ccccc1 [Compound 175]
- IC50 [1]: 132 nM
- IC50 (influenza virus): 102 nM

SMILES: CN1C(=O)c2c(O)c(=O)c(C(=O)O)cn2C[C@H]1C(c1ccccc1)c1ccccc1 [Compound 43]
- IC50 [1]: 78 nM
- IC50 (influenza virus): 1410 nM

SMILES: CCOC(=O)CCN1CN(C(c2ccccc2)c2ccccc2)n2ccc(=O)c(O)c2C1=O [Compound 128]
- IC50 [1]: 63 nM
- IC50 (influenza virus): 416 nM
